Laboratory results as given in ChEMBL document CHEMBL3232781, “Fluorinated benzophenone derivatives: balanced multipotent agents for Alzheimer's disease” (Eur J Med Chem, 2014).
Calls of active or inactive are those of the source. No cut-off for these calls is given here.

Legend:
SH-SY5Y [1] = assay: Antioxidant activity in human SH-SY5Y cells assessed as inhibition of amyloid beta (25 to 35)-induced intracellular ROS formation at 500 uM after 3 hrs by dihydroethidium-based fluorescence microscopic analysis relative to control; assay type: functional
SH-SY5Y [2] = assay: Antioxidant activity in human SH-SY5Y cells assessed as inhibition of t-BuOOH-induced intracellular ROS formation at 500 uM after 30 mins by dihydroethidium-based spectrofluorometric analysis relative to control; assay type: functional; conditions: 0.5 h
[3] = biological target: Beta-secretase 1 (Homo sapiens) (UniProt P56817); assay: Inhibition of human recombinant BACE-1 using M-2420 as substrate up to 4 uM incubated for 1 hr prior to substrate addition measured after 15 mins by FRET assay
Chain of Beta-secretase 1 (Homo sapiens) (P56817 whole entry): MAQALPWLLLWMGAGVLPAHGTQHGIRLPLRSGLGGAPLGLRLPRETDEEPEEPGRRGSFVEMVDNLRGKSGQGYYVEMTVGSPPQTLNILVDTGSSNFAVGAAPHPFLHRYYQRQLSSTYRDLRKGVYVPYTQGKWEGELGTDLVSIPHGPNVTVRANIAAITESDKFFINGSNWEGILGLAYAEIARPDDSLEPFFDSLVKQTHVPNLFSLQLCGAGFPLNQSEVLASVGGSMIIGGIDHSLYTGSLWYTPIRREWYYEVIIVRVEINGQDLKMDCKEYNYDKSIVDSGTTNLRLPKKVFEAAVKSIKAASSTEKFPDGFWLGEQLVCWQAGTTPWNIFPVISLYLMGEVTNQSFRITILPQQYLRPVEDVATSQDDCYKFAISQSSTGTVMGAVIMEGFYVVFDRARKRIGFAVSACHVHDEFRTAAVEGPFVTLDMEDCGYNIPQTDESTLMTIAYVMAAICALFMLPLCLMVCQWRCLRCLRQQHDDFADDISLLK

Acetylcholinesterase = Acetylcholinesterase (Homo sapiens, UniProt P22303); assay: Inhibition of human recombinant AChE using acetylthiocholine iodide as substrate preincubated for 20 mins by Ellman's method
Chain of Acetylcholinesterase (P22303 whole entry): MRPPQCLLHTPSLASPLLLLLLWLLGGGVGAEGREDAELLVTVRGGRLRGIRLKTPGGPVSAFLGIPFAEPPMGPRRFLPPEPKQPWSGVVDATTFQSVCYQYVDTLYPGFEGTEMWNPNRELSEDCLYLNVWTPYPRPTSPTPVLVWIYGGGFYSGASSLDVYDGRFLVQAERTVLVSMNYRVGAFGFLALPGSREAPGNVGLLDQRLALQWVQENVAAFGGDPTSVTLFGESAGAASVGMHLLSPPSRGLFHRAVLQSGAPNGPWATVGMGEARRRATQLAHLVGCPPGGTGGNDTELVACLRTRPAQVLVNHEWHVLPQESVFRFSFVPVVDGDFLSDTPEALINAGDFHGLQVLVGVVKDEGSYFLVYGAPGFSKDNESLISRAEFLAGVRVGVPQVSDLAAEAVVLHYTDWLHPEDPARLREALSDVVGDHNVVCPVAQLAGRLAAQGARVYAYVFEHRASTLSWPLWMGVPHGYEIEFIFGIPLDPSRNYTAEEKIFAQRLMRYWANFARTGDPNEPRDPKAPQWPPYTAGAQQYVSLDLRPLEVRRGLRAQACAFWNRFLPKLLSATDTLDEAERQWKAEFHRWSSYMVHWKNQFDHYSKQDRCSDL

[4] = biological target: Beta-secretase 1 (Homo sapiens) (UniProt P56817); assay: Inhibition of human recombinant BACE-1 using M-2420 as substrate at 3 uM incubated for 1 hr prior to substrate addition measured after 15 mins by FRET assay relative to control
[5] = biological target: Beta-secretase 1 (Homo sapiens) (UniProt P56817); assay: Inhibition of human recombinant BACE-1 using M-2420 as substrate at 5 uM incubated for 1 hr prior to substrate addition measured after 15 mins by FRET assay relative to control
SH-SY5Y [6] = assay: Neurotoxicity in human SH-SY5Y cells assessed as decrease in cell viability at 10 to 50 uM after 24 hrs by MTT assay; assay type: toxicity, cell-based
SH-SY5Y [7] = assay: Antioxidant activity in human SH-SY5Y cells assessed as inhibition of amyloid beta (25 to 35)-induced intracellular ROS formation at 3 to 5 uM after 3 hrs by dihydroethidium-based fluorescence microscopic analysis relative to control; assay type: functional
SH-SY5Y [8] = assay: Antioxidant activity in human SH-SY5Y cells assessed as inhibition of t-BuOOH-induced intracellular ROS formation at 3 to 5 uM after 30 mins by dihydroethidium-based spectrofluorometric analysis; assay type: functional, cell-based
[9] = biological target: Beta-secretase 1 (Homo sapiens) (UniProt P56817); assay: Inhibition of human recombinant BACE-1 using M-2420 as substrate at 3.38 uM incubated for 1 hr prior to substrate addition measured after 15 mins by FRET assay relative to control

CC(=O)N[C@@H](CS)C(=O)O [ACETYLCYSTEINE]
inhibition at 500 µM (SH-SY5Y [1]): 35% | inhibition at 500 µM (SH-SY5Y [2]): 35%

COc1ccc(C(=O)c2ccc(CN(C)Cc3ccccc3)cc2)cc1
inhibition [3]: inactive

Cc1ccc(C(=O)c2ccc(O)c(F)c2)cc1
inhibition (Acetylcholinesterase): inactive | inhibition [4]: 35.4%

COc1ccc(C(=O)c2ccc(CN(C)Cc3ccccc3)cc2)cc1OC
inhibition [5]: 20%

CN1CCN(Cc2ccc(C(=O)c3ccc(O)c(F)c3)cc2)CC1
inhibition [3]: inactive | inhibition (Acetylcholinesterase): inactive

O=C(c1ccc(CN2CCC(CCO)CC2)cc1)c1ccc(O)c(F)c1
Activity (SH-SY5Y [6]): Non-toxic | IC50 (Acetylcholinesterase): 2320 nM | Imax (SH-SY5Y [7]): 30% | inhibition (SH-SY5Y [8]): Active | inhibition [4]: 58.7%

O=C(c1ccc(CN2CCN(Cc3ccccc3)CC2)cc1)c1ccc(O)c(F)c1
inhibition [3]: inactive | inhibition (Acetylcholinesterase): inactive

CN(Cc1ccc(C(=O)c2ccc(O)c(F)c2)cc1)Cc1cccc(O)c1
inhibition [3]: inactive | inhibition (Acetylcholinesterase): inactive

CN(C)CCN(C)Cc1ccc(C(=O)c2ccc(O)c(F)c2)cc1
inhibition (Acetylcholinesterase): inactive | inhibition [4]: 13.5%

CN(Cc1ccccc1)Cc1ccc(C(=O)c2ccc(O)cc2)cc1
inhibition [3]: inactive

O=C(c1ccc(CN2CCN(c3ccccc3)CC2)cc1)c1ccc(O)c(F)c1
inhibition [3]: inactive | inhibition (Acetylcholinesterase): inactive

COc1ccc(C(=O)c2ccc(CN(C)Cc3ccccc3)cc2)cc1F
inhibition [9]: 10.7% | Activity (SH-SY5Y [6]): Non-toxic | inhibition (SH-SY5Y [7]): inactive | inhibition (SH-SY5Y [8]): inactive

O=C(c1ccc(CN2CCC(O)CC2)cc1)c1ccc(O)c(F)c1
inhibition (Acetylcholinesterase): inactive | inhibition [4]: 32.8%

CN(Cc1ccccc1)Cc1ccc(C(=O)c2ccc(O)c(F)c2)cc1
Activity (SH-SY5Y [6]): Toxic | IC50 (Acetylcholinesterase): 3660 nM | Imax (SH-SY5Y [7]): 30% | inhibition (SH-SY5Y [8]): Active | inhibition [4]: 40.8%

CN(CCO)Cc1ccc(C(=O)c2ccc(O)c(F)c2)cc1
inhibition (Acetylcholinesterase): inactive | inhibition [4]: 46.7%

CN(Cc1ccc(C(=O)c2ccc(O)c(F)c2)cc1)C1CCCCC1
inhibition (Acetylcholinesterase): inactive | inhibition [4]: 36.2%
